Measured values taken from paper PMC10611578, “Aβ1-6A2V(D) peptide, effective on Aβ aggregation, inhibits tau misfolding and protects the brain after traumatic brain injury” (Molecular Psychiatry, 2023).
Square brackets hold non-standard residues; d marks the D form. Peptide text beside a SMILES is read from it.

System: misfolded toxic tau in P301L mouse brain homogenate; C. elegans
Type: in vivo, Caenorhabditis elegans (Bristol N2)
Experimental: Bristol N2 nematodes were obtained from the Caenorhabditis elegans Genetic Center (CGC, University of Minnesota, Minneapolis, MN, USA) and propagated at 20 °C on solid Nematode Growth Medium (NGM) seeded with E. coli OP50 (CGC) for food. We used the bleaching technique to prepare age-synchronized animals. C. elegans at the first larval stage were then transferred to fresh NGM plates and grown at 20 °C. At the L3-L4 larval stage, nematodes were collected with M9 buffer, centrifuged, and washed twice with 10 mM PBS (pH 7.4) to eliminate bacteria. Worms were incubated for 2 h at room temperature with orbital shaking, in the absence of E. coli, with brain homogenates from Non-tg and P301L mice (30 µg protein/100 worms/100 µL 10 mM PBS, pH 7.4) in the presence or absence of 50 µM Aβ1-6A2V(D), 50 µM TAT, or 0.1–200 µM Aβ1-6A2V-TAT(D). Control worms were treated with 10 mM PBS, pH 7.4 (Vehicle), 50 µM Aβ1-6A2V (D), 50 µM Aβ1-6A2V-TAT(D) or 50 µM TAT (100 worms/100 µL). Pericontusional tissue homogenates from young WT TBI mice 12 months post-injury or aged-matched sham mice were administered to worms (30 µg protein/100 worms/100 µL) in the absence or presence of 50 µM Aβ1-6A2V-TAT(D). Pericontusional tissue homogenates from 3xTg-AD TBI mice, as well as pericontusional tissues from aged WT TBI, previously treated or not with intranasal 50 mg/kg b.w. […] Homogenates from naive or sham mice were administered to worms as controls for 3xTg-AD and aged WT TBI mice, respectively ((30 µg protein/100 worms/100 µL 10 mM PBS, pH 7.4). As an additional negative control, 10 mM PBS, pH 7.4 (100 worms/100 µL) was administered to nematodes. Worms were then plated onto NGM plates seeded with OP50 E. coli, grown at 20 °C, and transferred every day to new NGM plates seeded with E. coli to avoid overlapping generations. The locomotor activity of nematodes was scored 7 days after the treatment in blind conditions and expressed as the body bends/min [26]. […]

CC(C)[C@@H](NC(=O)[C@H](N)CC(=O)O)C(=O)N[C@H](CCC(=O)O)C(=O)N[C@H](Cc1ccccc1)C(=O)N[C@H](CCCNC(=N)N)C(=O)N[C@H](Cc1c[nH]cn1)C(=O)NCC(=O)NCC(=O)NCC(=O)NCC(=O)NCC(=O)N[C@H](CCCNC(=N)N)C(=O)N[C@H](CCCCN)C(=O)N[C@H](CCCCN)C(=O)N[C@H](CCCNC(=N)N)C(=O)N[C@H](CCCNC(=N)N)C(=O)N[C@H](CCC(N)=O)C(=O)N[C@H](CCCNC(=N)N)C(=O)N[C@H](CCCNC(=N)N)C(=O)N[C@H](CCCNC(=N)N)C(=O)O [Aβ1-6A2V-TAT(D)] (H-[dD][dV][dE][dF][dR][dH]GGGGG[dR][dK][dK][dR][dR][dQ][dR][dR][dR]-OH; N-terminus assumed)
Dose dependence of the protection of worms from P301L brain homogenate (0-200 µM peptide, body bends 7 days after treatment): The effect was dose-dependent | Protection of worms from toxicity of P301L brain homogenate (30 µg protein/100 worms/100 µL, body bends 7 days after treatment, 50 µM peptide): protected worms from the toxicity caused by P301L brain homogenates | IC50 (0.1–200 µM peptide, 30 µg protein/100 worms/100 µL, 2 h exposure at room temperature, PBS pH 7.4, body bends 7 days after treatment, three independent experiments (N = 30), read-out: IC50 for protection of worms from P301L brain homogenate toxicity): 25.6 µM
